Measured values published in patent US20100004257A1 (University of South Floria, priority 2007, published 2010).
Like-named read-outs stand apart in the source and are kept apart here.

Assays:
[1] = tested on: imatinib-resistant BCR-ABL mutants; conditions: number of mutants / mutants tested; cited from earlier work
[2] = tested on: pAkt, pSTAT3, cleaved PARP in H3255 cells; assay: Western analysis of pAkt, pSTAT3 and cleaved PARP; assay type: cell-based, Human; conditions: increasing concentrations, 24 hours
[3] = tested on: pAkt, cleaved PARP in PC9 cells; assay: Western analysis of pAkt, pSTAT3 and cleaved PARP; assay type: cell-based, Human; conditions: 24 hours; for PARP cleavage: gefitinib at 50 nmol/L, dasatinib at increasing concentrations
[4] = tested on: pTyr416 Src (pSrc) family in PC9 cells; assay: Western analysis of Src phosphorylation status; assay type: cell-based, Human; conditions: 24 hours
H358 cells [5] = conditions: 24 hours, gefitinib 1 μmol/L, dasatinib 500 nmol/L, or the combination
[6] = tested on: pTyr416 Src (pSrc) family in H1650 cells; assay: Western analysis of Src phosphorylation status; assay type: cell-based, Human
[7] = tested on: pFAK, pSTAT3, pAkt, pERK in A549 cells; assay: Western analysis of pFAK, pSTAT3, pAkt, pERK; assay type: cell-based, Human; conditions: 500 nmol/L, 3 hours
[8] = tested on: pAkt, pSTAT3, cleaved PARP in H1975 cells; assay: Western analysis of pAkt, pSTAT3 and cleaved PARP; assay type: cell-based, Human; conditions: 24 hours
H358 cells [9] = assay: MTT assay after 120 hours, IC50; assay type: cell-based, Human; conditions: for IC50: Homo sapiens, NCI-H358, 120 h
From the text: (§1) Cell lines and cell culture. Human lung cancer cell lines were maintained in RPMI 1640 plus 5% bovine calf serum (BCS). H3255 cells were provided by Dr. Pasi Janne (Dana-Farber, Boston, Mass.) and grown in ACL-4 medium (12). HCC827 cells were provided by Dr. Jon Kurie (M. D. Anderson, Houston, Tex.). PC9 cells were provided by Dr. Matthew Lazzara (Massachusetts Institute of Technology, Boston, Mass.). […]. Gefitinib was provided by AstraZeneca (Wilmington, Del.) and dasatinib by Bristol-Myers Squibb Oncology (Princeton, N.J.). For cell transfection experiments, 2×10^6 HEK293 cells in a 6-cm dish maintained in DMEM/10% BCS were transfected with 1 Ag plasmid DNA for 3 hours using LipofectAMINE 2000 (Invitrogen, Carlsbad, Calif.) and then allowed to go 24 hours before being treated with inhibitors.
(§2) Cytotoxicity and apoptosis assays. Cytotoxicity assays [3-(4,5-dimethylthiazol-2-yl)-2,5-diphenyltetrazolium bromide] were done according to the manufacturer's recommendations (Roche, Indianapolis, Ind.). […] Data presented represent three separate experiments with eight data points per concentration per experiment. Apoptosis [PharMingen (San Diego, Calif.) Apo-BrdU kit] and cell cycle changes (propidium iodide staining and flow cytometry) were assayed as before (13). Data are expressed as mean±SD.

H1648 cells = assay: MTT assay after 120 hours, IC50; assay type: cell-based, Human; conditions: for IC50: Homo sapiens, NCI-H1648, 120 h
From the text: as §1, §2

H1299 cells = assay: MTT assay after 120 hours, IC50; assay type: cell-based, Human; conditions: for IC50: Homo sapiens, NCI-H1299, 120 h
From the text: as §1, §2

H322 cells = assay: MTT assay after 120 hours, IC50; assay type: cell-based, Human; conditions: for IC50: Homo sapiens, NCI-H322, 120 h
From the text: as §1, §2

H292 cells = assay: MTT assay after 120 hours, IC50; assay type: cell-based, Human; conditions: for IC50: Homo sapiens, NCI-H292, 120 h
From the text: as §1, §2

H157 cells = assay: MTT assay after 120 hours, IC50; assay type: cell-based, Human; conditions: for IC50: Homo sapiens, NCI-H157, 120 h
From the text: as §1, §2

[10] = tested on: pTyr416 Src (pSrc) family in H1975 cells; assay: Western analysis of Src phosphorylation status; assay type: cell-based, Human; conditions: 24 hours, dasatinib at 50 nmol/L
A549 cells [11] = assay: Cell cycle profile and cyclin D/p27 Western analysis; assay type: cell-based, Human; conditions: 24 hours, gefitinib 1 μmol/L, dasatinib 500 nmol/L; for cell cycle profile: FIG. 12; for cyclin D3 and p27 proteins: FIG. 13
H441 cells [12] = assay: Combination effect in cell viability assays, median dose effect method; assay type: cell-based, Human; conditions: dose range used
Description: Combination effects were evaluated by median dose effect method.

H1650 cells = assay: Cell viability, dasatinib compared with gefitinib, 72 hours; assay type: cell-based, Human; conditions: H1650 grown in 5% BCS, FIG. 6
Description: FIG. 6. presents a series of four graphs, with each graph representative of a different cell line as indicated at the top of the graph.
Cytotoxicity and apoptosis assays. Cytotoxicity assays [3-(4,5-dimethylthiazol-2-yl)-2,5-diphenyltetrazolium bromide] were done according to the manufacturer's recommendations (Roche, Indianapolis, Ind.). Cells (5×10^3) in medium with 5% BCS were placed into single wells in a 96-well plate and exposed to indicated agents, and viability was assessed after 72 hours. Data presented represent three separate experiments with eight data points per concentration per experiment. Apoptosis [PharMingen (San Diego, Calif.) Apo-BrdU kit] and cell cycle changes (propidium iodide staining and flow cytometry) were assayed as before (13). Data are expressed as mean±SD.

H23 cells = assay: MTT assay after 120 hours, IC50; assay type: cell-based; conditions: Homo sapiens, NCI-H23, 120 h
From the text: as §1, §2

H226 cells = assay: MTT assay after 120 hours, IC50; assay type: cell-based; conditions: Homo sapiens, NCI-H226, 120 h
From the text: as §1, §2

H2122 cells = assay: MTT assay after 120 hours, IC50; assay type: cell-based; conditions: Homo sapiens, NCI-H2122, 120 h
From the text: as §1, §2

H441 cells [13] = assay: MTT assay after 120 hours, IC50; assay type: cell-based; conditions: Homo sapiens, NCI-H441, 120 h
From the text: as §1, §2

H460 cells = assay: MTT assay after 120 hours, IC50; assay type: cell-based; conditions: Homo sapiens, NCI-H460, 120 h
From the text: as §1, §2

[14] = tested on: pAkt, pSTAT3, cleaved PARP in H1650 cells; assay: Western analysis of pAkt, pSTAT3 and cleaved PARP; assay type: cell-based, Human; conditions: 24 hours; for pSTAT3: H1650, any growth conditions
[15] = dosing for CML; ODAC briefing document; cited from earlier work
A549 cells [16] = assay: MTT assay after 120 hours, IC50; assay type: cell-based; conditions: Homo sapiens, A549, 120 h, read-out: EGFR TKI IC50 (Nm)
From the text: Cell lines and cell culture. […] Gefitinib was provided by AstraZeneca (Wilmington, Del.) and dasatinib by Bristol-Myers Squibb Oncology (Princeton, N.J.).
Cytotoxicity and apoptosis assays. Cytotoxicity assays [3-(4,5-dimethylthiazol-2-yl)-2,5-diphenyltetrazolium bromide] were done according to the manufacturer's recommendations (Roche, Indianapolis, Ind.). Cells (5×10^3) in medium with 5% BCS were placed into single wells in a 96-well plate and exposed to indicated agents, and viability was assessed after 72 hours. Data presented represent three separate experiments with eight data points per concentration per experiment. […] Data are expressed as mean±SD.

[17] = tested on: lung cancer cells with EGFR mutation that are resistant to EGFR TKI; assay: Apoptosis and cell cycle in cells with acquired resistance to erlotinib; assay type: cell-based, Human; conditions: EGFR mutant cells resistant to EGFR TKI
[18] = H1650 grown in 5% BCS, dasatinib at 50 nmol/L
[19] = H1650 in low serum with exogenous EGF, 50 nmol/L

Cc1cn(-c2cc(NC(=O)c3ccc(C)c(Nc4nccc(-c5cccnc5)n4)c3)cc(C(F)(F)F)c2)cn1 [AMN107]
imatinib-resistant BCR-ABL mutants against which significantly active [1]: 32/33

Cc1nc(Nc2ncc(C(=O)Nc3c(C)cccc3Cl)s2)cc(N2CCN(CCO)CC2)n1 [dasatinib, N-(2-chloro-6-methylphenyl)-2-[[6-[4-[(2-hydroxyethyl)-1-pipperazinyl]-2-methyl-4-pyrimidinyl]amino]-5-thiazolecarboxamide, monohydrate]
PARP cleavage [2]: increase in PARP cleavage
pAkt and pSTAT3 [2]: concentration-dependent decrease of both pAkt and pSTAT3
PARP cleavage [3]: associated changes in PARP cleavage
pAkt ([3]; increasing concentrations): dose-dependent inhibition of pAkt
pSrc ([4]; 50 nmol/L): inhibits pSrc
G1 cell cycle arrest (H358 cells [5]): G1 cell cycle arrest to the same extent
cyclins D1 and D3 and p27 protein levels (H358 cells [5]): reduced cyclins D1 and D3 and increased p27 protein levels
autophosphorylation of Tyr416 on Src family members (pSrc) ([6]; H1650 cells, 50 nmol/L, monohydrate): completely inhibits pSrc
pFAK [7]: reduction in pFAK
pSTAT3, pAkt, or pERK [7]: no significant reductions
PARP cleavage [8]: no PARP cleavage
pAkt or pSTAT3 [8]: neither gefitinib nor dasatinib affects
SRC Sensitivity (H358 cells [9]; H358, BAC, EGFR WT, MTT 120 hours): S (SRC TKI Sensitivity Definition: IC50 less than 100 nM)
IC50 (H358 cells [9]; read-out: Dasatinib IC50 (Nm)): 27.4 nM
SRC Sensitivity (H1648 cells; H1648, Adeno, EGFR WT, MTT 120 hours): S (SRC TKI Sensitivity Definition: IC50 less than 100 nM)
IC50 (H1648 cells; read-out: Dasatinib IC50 (Nm)): 20.9 nM
SRC Sensitivity (H1299 cells; H1299, Large Cell, EGFR WT, MTT 120 hours): S (SRC TKI Sensitivity Definition: IC50 less than 100 nM)
IC50 (H1299 cells; read-out: Dasatinib IC50 (Nm)): 31.6 nM
SRC Sensitivity (H322 cells; H322, BAC, EGFR WT, MTT 120 hours): S (SRC TKI Sensitivity Definition: IC50 less than 100 nM)
IC50 (H322 cells; read-out: Dasatinib IC50 (Nm)): 11.6 nM
SRC Sensitivity (H292 cells; H292, Squamous, EGFR WT, MTT 120 hours): S (SRC TKI Sensitivity Definition: IC50 less than 100 nM)
IC50 (H292 cells; read-out: Dasatinib IC50 (Nm)): 28.4 nM
SRC Sensitivity (H157 cells; H157, Squamous, EGFR WT, MTT 120 hours): S (SRC TKI Sensitivity Definition: IC50 less than 100 nM)
IC50 (H157 cells; read-out: Dasatinib IC50 (Nm)): 48.9 nM
pSrc [10]: completely inhibits the low levels of pSrc
cell cycle profile (A549 cells [11]): cell cycle arrest characterized by increased G1 fraction and reduced S-phase fraction
cyclin D3 and p27 proteins (A549 cells [11]): decline in cyclin D3 and an increase in p27
effect on cell viability (H441 cells [12]): no effect
cell viability, dasatinib versus gefitinib (H1650 cells): inhibited cell viability more than gefitinib
IC50 (H23 cells; read-out: Dasatinib IC50 (Nm)): > 2000 nM
IC50 (H226 cells; read-out: Dasatinib IC50 (Nm)): 709 nM
IC50 (H2122 cells; read-out: Dasatinib IC50 (Nm)): 486 nM
IC50 (H441 cells [13]; read-out: Dasatinib IC50 (Nm)): > 2000 nM
IC50 (H460 cells; read-out: Dasatinib IC50 (Nm)): > 2000 nM
pSTAT3 [14]: No effect
PARP cleavage ([14]; H1650 grown in 5% BCS): induction of PARP cleavage
pAkt [14, 18]: inhibits pAkt
pAkt [14, 19]: inhibit pAkt
degree of PARP cleavage, dasatinib versus gefitinib ([14]; H1650 in low serum with exogenous EGF): degree of PARP cleavage is higher
Cmax [15]: 60 to 120 nM

C#Cc1cccc(Nc2ncnc3cc(OCCOC)c(OCCOC)cc23)c1 [erlotinib]
IC50 (A549 cells [16]): > 2000 nM
cell cycle [17]: no observable effect on cell cycle
IC50 (H358 cells [9]; read-out: EGFR TKI IC50 (Nm)): 199 nM
EGFR TKI Sensitivity (H358 cells [9]; erlotinib, H358, BAC, EGFR WT, MTT 120 hours): S (EGFR TKI Sensitivity Definition: Reported IC50 < or = 1 μM)
IC50 (H1648 cells; read-out: EGFR TKI IC50 (Nm)): 75.8 nM
EGFR TKI Sensitivity (H1648 cells; erlotinib, H1648, Adeno, EGFR WT, MTT 120 hours): S (EGFR TKI Sensitivity Definition: Reported IC50 < or = 1 μM)
IC50 (H1299 cells; read-out: EGFR TKI IC50 (Nm)): > 2000 nM
IC50 (H322 cells; read-out: EGFR TKI IC50 (Nm)): 135 nM
EGFR TKI Sensitivity (H322 cells; erlotinib, H322, BAC, EGFR WT, MTT 120 hours): S (EGFR TKI Sensitivity Definition: Reported IC50 < or = 1 μM)
IC50 (H292 cells; read-out: EGFR TKI IC50 (Nm)): 63.4 nM
EGFR TKI Sensitivity (H292 cells; erlotinib, H292, Squamous, EGFR WT, MTT 120 hours): S (EGFR TKI Sensitivity Definition: Reported IC50 < or = 1 μM)
IC50 (H157 cells; read-out: EGFR TKI IC50 (Nm)): > 2000 nM
effect on cell viability (H441 cells [12]): no effect
IC50 (H23 cells; read-out: EGFR TKI IC50 (Nm)): > 2000 nM
IC50 (H226 cells; read-out: EGFR TKI IC50 (Nm)): > 2000 nM
IC50 (H2122 cells; read-out: EGFR TKI IC50 (Nm)): 748 nM
IC50 (H441 cells [13]; read-out: EGFR TKI IC50 (Nm)): > 2000 nM
IC50 (H460 cells; read-out: EGFR TKI IC50 (Nm)): > 2000 nM

COc1cc2ncnc(Nc3ccc(F)c(Cl)c3)c2cc1OCCCN1CCOCC1 [gefitinib]
pAkt ([3]; 50 nmol/L): completely inhibits pAkt
PARP cleavage [3]: induces PARP cleavage
pSrc ([4]; 250 nmol/L): decrease in pSrc
pSrc ([4]; 1 μmol/L): incomplete
G1 cell cycle arrest (H358 cells [5]): G1 cell cycle arrest to the same extent
cyclins D1 and D3 and p27 protein levels (H358 cells [5]): reduced cyclins D1 and D3 and increased p27 protein levels
pSrc ([6]; H1650, increasing concentrations, 24 hours): incomplete
PARP cleavage [8]: no PARP cleavage
pAkt or pSTAT3 [8]: neither gefitinib nor dasatinib affects
pSrc [10]: minimal changes
cell cycle profile (A549 cells [11]): no effect
cyclin D3 and p27 proteins (A549 cells [11]): no changes
pSTAT3 [14]: No effect
PARP cleavage ([14]; H1650 grown in 5% BCS): degree of PARP cleavage is less
pAkt [14, 18]: minimal effect on pAkt
pAkt [14, 19]: inhibit pAkt
